From patent publication US9109001B2, “3′,5′-cyclic phosphoramidate prodrugs for HCV infection” (priority 2012, dated 2015)

What was measured:
[1] = Stability in human intestinal S9 (HIS9); assay type: in vitro ADME; conditions: 10 μM, 1.0 mg/mL protein, NADPH, 60 min; percent unchanged
Description: (§1) Stability in Liver and Intestinal Subcellular Fractions: Stability of test compounds were determined in subcellular fractions (microsomes and S9) of human liver and intestine in duplicate for each matrix. Pooled liver and intestinal microsomal, intestinal and liver S9 proteins (1.0 mg/mL), suspended in incubation buffer (100 mM potassium phosphate, pH 7.4, 5 mM MgCl2, and 0.1 mM EDTA), were preincubated for 5 min at 37° C. with 10 μM of a test compound from a 10 mM stock solution in DMSO (final DMSO concentration was 0.1%); the reaction was initiated by the addition of NADPH (3 mM final concentration). At specific times (0 and 60 min), 0.1 mL samples were taken and the reaction terminated by the addition of 4 volumes of stop solution (acetonitrile with 500 ng/mL carbutamide as an internal standard). The samples were vortexed for 30 sec and then centrifuged at 16,000 g for 10 min. 100 μL of supernatants were transferred to 96 deep-well plates preloaded with 100 μL distilled water and analyzed after mixing by LC-MS/MS. The MS peak area ratio of the test compound versus the internal standard was calculated and percent unchanged test compound over 60 minutes was calculated using this ratio.

[2] = Plasma and liver pharmacokinetics following a single oral dose in CD-1 mice; assay type: in vivo; conditions: CD-1 male mice; for Ms Liver 2′-MeGTP AUC (pmol · hr/g at 1 μmol/kg): single oral dose 25 mg/kg in PEG 200, liver 2′-MeGTP; for Ms Plasma 2′-MeG AUC (pmol · hr/mL at 1 μmol/kg) / Ms Plasma 2′-MeG Cmax (pmol/mL at 1 μmol/kg): single oral dose 25 mg/kg in PEG 200, plasma 2′-MeG
Description: Plasma samples were analyzed for 2′-methylguanosine (2′-MeG) by LC-MS/MS. The internal standard (IS) was 2′-MeG-D3. For protein precipitation and extraction, each plasma sample (50 μL) was treated with 500 μL of 0.2% formic acid in acetonitrile and 20 μL of the internal standard working solution. After vortexing and centrifugation, 500 μL of the sample extracts were transferred to a new plate, dried under N2 at ˜28° C. and reconstituted with 75 μL of 0.2% FA in water. The extracts were chromatographed on an Aquasil C18 column using a gradient system of 0.2% formic acid in water and acetonitrile. The analytes were detected and quantified by tandem mass spectrometry in positive ion mode on an MDS Sciex API5000 equipped with a Turbo Ionspray® interface. The calibration range was 0.500 (LLOQ) to 200 ng/mL in mouse plasma. The corresponding range for molar units is 1.68 to 673 pmol/mL.
Liver samples were analyzed for the active species 2′-methylguanosine triphosphate (2′-MeGTP) by LC-MS/MS. […] Internal standard solution was added to the homogenate followed by neutralization with 20% ammonium hydroxide solution and addition of 500 μL 1% formic acid. The tissue samples were extracted by weak anion exchange solid phase extraction (SPE). Post extraction, the eluates were evaporated under nitrogen, followed by reconstitution before injection onto the LC-MS/MS system. […] The calibration range was 10 to 10000 pmol/mL in mouse liver homogenate (50 to 50000 pmol/g of mouse liver).

Huh-7 cells = experiment: Release of active metabolite in Huh-7 cells; assay type: in vitro ADME, human; conditions: 10 μM test compound
Description: Assay for the Release of Active Metabolite in Huh-7 Cells. Huh-7 cells were plated in 1 mL culture medium (DMEM, containing glucose, L-glutamine and sodium pyruvate, 10% FBS, 100 IU/mL penicillin, 100 μg/mL streptomycin, 2 mM GlutaMAX, 1% MEM non-essential amino acids) at the concentration 0.8, 0.4 and 0.2 million cells per well on 6 well plates for 24, 48 and 72 hr treatment, respectively. Plated cells were incubated overnight at 37° C. in an incubator.
The following morning test compound was diluted to 20 μM from a stock solution in DMSO in fresh culture medium pre-warmed to 37° C. and 1 mL of the solution/well was added to cells. A final medium volume per well was 2.0 mL, test compound concentration in well was 10 μM and final DMSO concentration was 0.1%.
After 24, 48 or 72 hr, the medium was carefully removed and cell monolayers were washed twice with 2 mL ice-cold PBS per well. Following the last wash, all PBS was carefully removed and 1.0 mL of extraction solution (ice-cold 70% methanol) added. The plate was tightly covered with Parafilm, plastic plate cover and Parafilm again and an intracellular content was extracted at −20° C. for 24 hr.
After 24 hr extracts were transferred into polypropylene microfuge tubes and dry on a refrigerated centrivap concentrator. Dry residues were reconstituted in 250 μL of HPLC-grade water and centrifuged at 16,000×g for 10 min. Aliquots (100 μL each) of the supernatants were transferred into a 96 well plate and internal standard (4 ng/mL final concentration) was added as the internal standard (IS) for LC-MS/MS analysis.

Stability in mouse blood = assay type: in vitro ADME; conditions: on ice, percent unchanged test compound
Description: Stability in Fresh Whole Blood: Stability of test compounds were determined in fresh human whole blood with K2EDTA as the anticoagulant (stored refrigerated at 2-8° C. and used within 7 days of receipt). The experiment was conducted with three replicates for each time point. Whole blood, pre-incubated at 37° C. for 10-15 minutes, was fortified with a solution of test compound for a final concentration of 0.5 μM and mixed for 30 sec. At intervals (0, 0.5, 1 and 2 hr), three 50-μL aliquots were combined with 200 μL (each) of an ice-cold solution of the internal standard (carbutamide 500 ng/mL in acetonitrile). The samples were vortexed for 30 sec and then centrifuged at 16,100 g for 5 min. The supernatant was analyzed by LC-MS/MS. The MS peak area ratio of the test compound versus the internal standard was calculated and percent unchanged test compound was calculated for each time point using this ratio.
The stability in mouse blood was determined on ice at 0, 0.5 and 1 hr as above.

[3] = Cytotoxicity evaluation (CellTiter-Blue Cell Viability Assay); assay type: cell-based, human; conditions: human, Zluc cells, read-out: HCV Replicon CC50
[4] = Stability in human liver microsomes; assay type: in vitro ADME; conditions: 10 μM, 1.0 mg/mL protein, NADPH, 60 min; percent unchanged
Description: as §1

[5] = Stability in human liver S9 fraction; assay type: in vitro ADME; conditions: 10 μM, 1.0 mg/mL protein, NADPH, 60 min; percent unchanged
Description: as §1

Zluc cells = experiment: Cytotoxicity evaluation (CellTiter-Blue Cell Viability Assay); assay type: cell-based, human; conditions: read-out: HCV Replicon CC50

SMILES | Stability HIS9 (1 hr) [1] | Ms Liver 2′-MeGTP AUC (pmol · hr/g at 1 μmol/kg) [2] | Ms Plasma 2′-MeG AUC (pmol · hr/mL at 1 μmol/kg) [2] | Ms Plasma 2′-MeG Cmax (pmol/mL at 1 μmol/kg) [2] | Huh-7 TP Cmax (pmol/mill cells) (Huh-7 cells) | Stability WB_Mouse (ice; 1 hr) (Stability in mouse blood) | CC50 [3] | Stability HLM (1 hr) [4] | Stability HLS9 (1 hr) [5] | CC50 (Zluc cells)
CCOc1nc(N)nc2c1ncn2[C@@H]1O[C@@H]2COP(=O)(N[C@@H](C)C(=O)OC(C)C)O[C@H]2[C@@]1(C)F (single isomer, unassigned) [Compound 1 Diastereomer 1] | 84% | 2400 pmol · hr/g at 1 μmol/kg | 110 pmol · hr/mL at 1 μmol/kg | 14 pmol/mL at 1 μmol/kg | 283 pmol/mill cells | 92% | > 50 µM | 11% | 51% | –
CCOc1nc(N)nc2c1ncn2[C@@H]1O[C@@H]2COP(=O)(N[C@@H](C)C(=O)OC(C)C)O[C@H]2[C@@]1(C)F (single isomer, unassigned) [Compound 1 Diastereomer 2] | 96% | 810 pmol · hr/g at 1 μmol/kg | 92 pmol · hr/mL at 1 μmol/kg | 9.8 pmol/mL at 1 μmol/kg | – | 36% | – | 52% | 66% | > 50 µM
